Measurements reported in patent US20250387388A1, “COMPOUND AS TRK INHIBITOR AND/OR RET INHIBITOR AND USE THEREOF” (Medinno Pharmaceutical Technology (Zhuhai) Co., Ltd., priority 2022, published 2025).

Tests used:
[1] = test system: allergic rhinitis model in mice; assay: Allergic rhinitis model in mice (OVA); format: in vivo, BALB/C mice; conditions: nasal drops twice a day, 7-day treatment; MDI-1233 10 mg/kg, MDI-1228 3 mg/kg, MDI-1288 3 mg/kg; fluticasone propionate positive control
Experimental: 42-49 day-old BALB/C mice (Manufacturer: Liaoning Changsheng Biotechnology Co., Ltd., License Number: SCXK(therapeutic)2015-0001), both male and female, were reared under conventional diet, at a temperature of 20 to 26° C., and a humidity of 40% to 70%. Animal grouping and modeling: • 1. Blank control group (no treatment) • 2. Allergic rhinitis group (vehicle treatment: saline containing 0.2% Tween 80) • 3. Allergic rhinitis+compound MDI-1233: 1 mg/kg • 4. Allergic rhinitis+compound MDI-1233: 3 mg/kg • 5. Allergic rhinitis+compound MDI-1233: 10 mg/kg • 6. Allergic rhinitis+compound MDI-1228: 3 mg/kg • 7. Allergic rhinitis+compound MDI-1288: 3 mg/kg • 8. Allergic rhinitis+positive control group (Fluticasone propionate, GlaxoSmithKline, E88D
The preparation of an AR model in mice involved sensitizing and challenging BALB/c mice with ovalbumin (OVA) to simulate an acute symptoms caused by natural exposure to an allergen. The experimental animals were weighed and separated by gender. Sensitization was performed on days 1, 5, 9, and 12. From day 13, a daily challenge was carried out for 7 consecutive days. After the last challenge, behavior of the mice was observed and scored. The sensitization method involved intraperitoneal injection of an OVA (Sigma, A5503-1G) suspension in 50 μg/ml in which the OVA suspension was prepared by dissolving 500 μg of ovalbumin and 50 mg of AL(OH)3 (CAS 21645-51-2) into 10 ml of normal saline, pH 7.4, with 200 μl injected per mouse. […] On day 12, a single nasal challenge with 10% OVA was performed (PBS was used for the control group). Scoring was conducted according to the table below, using a superposition method to calculate the total score. A total score greater than 5 was considered as successful. Subsequent experiments were conducted after the modeling was deemed successful.
From day 13, compound administration and challenge were conducted. The compound administration method involved calculating the nasal drops volume according to the mouse's body weight and group requirements, and dissolving the compounds MDI-1233, MDI-1228, MDI-1288 into normal saline containing 0.2% Tween 80 at specific concentrations. The administration was given 30 minutes before the challenge, twice a day. The positive control treatment involved administering nasal drop once (10 μl per side) 30 minutes before OVA nasal stimulation, twice a day. Thirty minutes after the second drug administration, a 10% OVA challenge was conducted, and the amount of nasal discharge, sneezing, and nose scratching were observed and recorded within 30 minutes after each challenge and then scored. The control group was treated with normal saline nasal drops.
After the rhinitis modeling was completed and the scores were stable, mice of each group were anesthetized and sacrificed after a 20-day scoring. Samples were collected, and peripheral serum was obtained by collecting whole blood, and standing it at room temperature for 1 hour and then centrifuging it to collect the supernatant for ELISA detection; nasal mucosa was taken for HE staining (fixed with 10% formalin); and the supernatant of nasal lavage fluid was taken for ELISA detection.
(1) HE Staining: The tissue was rinsed with running water for several hours, dehydrated through a series of ethanol solutions (70%, 80%, 90%), and then treated with a mixture of pure alcohol and xylene for 15 minutes, followed by xylene I for 15 minutes and xylene I1 for 15 minutes (until transparent). The tissue was then placed in a mixture of xylene and paraffin at a volume ratio of 1:1 for 15 minutes, followed by immersion with paraffin I and paraffin II each for 50-60 minutes. The tissue was embedded in paraffin and sectioned, and the sections were spreaded, dried, dewaxed and hydrated in distilled water. […]

[2] = test system: acne model in rabbits; assay: Acne model in rabbits (coal tar + Propionibacterium acnes); format: in vivo, New Zealand white rabbits; conditions: for Rabbit ear weight: twice per day, topical, 2 weeks; for Serum DHT level / Serum IL-1α level: vs. model (vehicle) group; for Effect on inflammatory factors and acne (conclusion): rabbit, in vivo
Experimental: Modeling: Rabbits were acclimated for 7 days. On the right inner ear canal exit of the rabbits, a 2 cm×2 cm area was treated with 2% coal tar solution once a day, 0.5-1 mL each time, for 26 consecutive days. […] On the 8th day, Propionibacterium acnes was injected intradermally at 3-4 sites on the rabbit ears, 50 μl per rabbit, injected every other day for a total of 5 times. Treatment was started randomly on the 9th day after the last injection.
Rabbits were treated according to their groups. The blank group received no treatment. […] The model group received an equal amount of vehicle treatment, with the same application method and duration as the test drug groups.
Twenty-four hours after the last administration, a 2.8 cm punch was used to prepare ear samples at the application site, and their weight was measured. The ears from the modeling site were fixed with 4% paraformaldehyde, and consecutive sections (3 slices) were taken from the same location for HE staining and histopathological analysis. At the same time, the area of 3 hair follicles and the diameter of 3 sebaceous glands were measured to calculate the average values. Blood was drawn from the heart and centrifuged to obtain serum, and the levels of interleukin-1α (IL-1α), interleukin-6 (IL-6), and dihydrotestosterone (DHT) in serum were determined according to the ELISA kit instructions.
Tissue samples from animal ears were excised, fixed in 4% paraformaldehyde, dehydrated, embedded in paraffin, and sectioned and HE stained for observation of histopathological morphology changes. The tissue samples were fixed in 4% paraformaldehyde at normal temperature and the taken ears tissue was rinsed with running water for several hours, dehydrated through a series of ethanol solutions (70%, 80%, 90%), and then treated with a mixture of pure alcohol and xylene for 15 minutes, followed by xylene I for 15 minutes and xylene II for 15 minutes (until transparent). The tissue was then placed in a mixture of xylene and paraffin at a volume ratio of 1:1 for 15 minutes, followed by immersion with paraffin I and paraffin II each for 50-60 minutes. The tissue was embedded in paraffin and sectioned, and the sections were baked, dewaxed and hydrated in distilled water. The resulting sections were then stained in hematoxylin solution for 3 minutes, differentiated in a hydrochloric acid alcohol solution for 15 seconds, slightly washed, blued in a return blue solution for 15 seconds, rinsed with running water, stained with eosin for 3 minutes, rinsed with running water, dehydrated, cleared, and mounted for microscopic examination.
A double-antibody one-step sandwich Enzyme-linked Immunosorbent Assay (ELISA) ket was used. A capture antibody for the mouse target indicators was pre-coated onto microplate wells, to which samples, standards, and HRP-labeled detection antibodies were added sequentially, followed by incubation and thorough washing. TMB substrate was added for color development, which turned into blue in the presence of peroxidase and then into yellow after acidification. The depth of color was positively correlated with the concentration of the target in the samples. The absorbance (OD450 value) was measured at a wavelength of 450 nm using the microplate reader, and the sample concentration was calculated.

[3] = biological target: TRKA (Homo sapiens (Human), UniProt P04629); assay: Inhibitory activity on TRKA (ADP-Glo Kinase Assay)
Sequence of TRKA (P04629 33-796 limits assumed): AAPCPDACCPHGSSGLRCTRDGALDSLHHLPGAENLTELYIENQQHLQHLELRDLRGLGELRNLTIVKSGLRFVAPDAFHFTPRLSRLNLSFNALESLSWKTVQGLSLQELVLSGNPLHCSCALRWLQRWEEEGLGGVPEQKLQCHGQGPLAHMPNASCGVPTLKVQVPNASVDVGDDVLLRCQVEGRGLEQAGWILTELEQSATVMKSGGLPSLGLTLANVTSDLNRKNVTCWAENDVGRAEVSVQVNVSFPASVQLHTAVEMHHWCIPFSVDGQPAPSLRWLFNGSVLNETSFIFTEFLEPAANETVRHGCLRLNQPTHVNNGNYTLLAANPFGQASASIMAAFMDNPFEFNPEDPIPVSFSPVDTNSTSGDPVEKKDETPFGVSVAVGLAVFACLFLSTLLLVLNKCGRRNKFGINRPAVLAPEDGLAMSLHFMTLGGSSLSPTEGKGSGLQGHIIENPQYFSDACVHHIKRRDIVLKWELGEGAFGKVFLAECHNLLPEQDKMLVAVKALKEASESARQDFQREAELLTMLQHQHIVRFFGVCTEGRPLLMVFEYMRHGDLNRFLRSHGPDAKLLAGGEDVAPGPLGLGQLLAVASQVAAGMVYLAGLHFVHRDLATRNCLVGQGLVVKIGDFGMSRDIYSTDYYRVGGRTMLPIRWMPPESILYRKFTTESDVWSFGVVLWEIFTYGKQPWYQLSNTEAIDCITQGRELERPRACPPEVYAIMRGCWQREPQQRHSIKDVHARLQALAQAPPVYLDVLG

[4] = biological target: TRKB (Homo sapiens (Human), UniProt Q16620); assay: Inhibitory activity on TRKB (ADP-Glo Kinase Assay)
Sequence of TRKB (Q16620 32-822): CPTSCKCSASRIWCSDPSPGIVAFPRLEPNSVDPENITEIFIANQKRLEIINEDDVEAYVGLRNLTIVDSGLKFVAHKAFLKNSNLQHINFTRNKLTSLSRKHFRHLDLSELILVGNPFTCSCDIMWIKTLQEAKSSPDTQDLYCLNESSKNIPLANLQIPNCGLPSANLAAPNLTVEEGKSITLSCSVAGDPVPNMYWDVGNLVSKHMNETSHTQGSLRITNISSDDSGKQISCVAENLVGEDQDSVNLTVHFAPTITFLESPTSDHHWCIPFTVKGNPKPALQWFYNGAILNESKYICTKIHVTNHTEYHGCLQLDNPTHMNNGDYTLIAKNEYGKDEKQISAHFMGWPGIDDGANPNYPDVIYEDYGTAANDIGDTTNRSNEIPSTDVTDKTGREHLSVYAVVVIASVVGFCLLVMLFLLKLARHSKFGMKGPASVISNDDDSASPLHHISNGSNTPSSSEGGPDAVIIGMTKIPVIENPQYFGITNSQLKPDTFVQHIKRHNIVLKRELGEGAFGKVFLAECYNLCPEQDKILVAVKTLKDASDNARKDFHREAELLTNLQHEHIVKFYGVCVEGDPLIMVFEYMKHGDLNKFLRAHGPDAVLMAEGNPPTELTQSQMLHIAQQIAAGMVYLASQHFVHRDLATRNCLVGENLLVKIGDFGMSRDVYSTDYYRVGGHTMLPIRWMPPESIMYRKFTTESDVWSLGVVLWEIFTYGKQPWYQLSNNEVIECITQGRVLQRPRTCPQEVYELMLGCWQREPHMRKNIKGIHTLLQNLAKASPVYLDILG

Structure (SMILES) | Rhinitis behavioral scoring [1] | Serum IL-1α, IL-6 and DHT levels ([2]; 1 mg/kg low-dose) | Hair follicle area ([2]; 3 mg/kg) | Rabbit ear weight ([2]; 3 mg/kg each time) | Ear tissue HE staining ([2]; 3 mg/kg medium-dose) | Serum DHT level ([2]; 3 mg/kg) | Serum IL-1α level ([2]; 3 mg/kg) | Hair follicle area ([2]; 9 mg/kg) | Rabbit ear weight ([2]; 9 mg/kg each time) | Serum DHT level ([2]; 9 mg/kg) | Serum IL-1α level ([2]; 9 mg/kg) | Effect on inflammatory factors and acne (conclusion) [2] | IC50 [3] [nM] | IC50 [4] [nM]
CCc1cc(O)c(F)cc1-c1ccc2c(-c3nc4c([nH]3)CN(C(=O)N3CC[C@H](O)C3)C4)n[nH]c2c1 [MDI-1228, (S)-(2-(6-(2-ethyl-5-fluoro-4-hydroxyphenyl)-1H-indazol-3-yl)-4,6-dihydropyrrolo[3,4-d]imidazol-5-(1H)-yl)(3-hydroxylpyrrolidin-1-yl)ketone] | did not significantly inhibit the allergic response in male mice | a trend of reduction in all three indicators | significantly reduced the enlargement of hair follicles | reduced ear weight | the best treatment effect | significantly reduced | significantly reduced | significantly reduced the enlargement of hair follicles | reduced ear weight | significantly reduced | significantly reduced | reducing the expression of inflammatory factors and improving acne | 1.82 | 1.77
CCc1cc(O)c(F)cc1-c1ccc2c(-c3nc4c([nH]3)CN(C(=O)NCC(O)CCl)C4)n[nH]c2c1 (stereo not drawn) [MDI-1288] | showed inhibitory effects on both male and female mouse rhinitis models | – | – | reduced ear weight | – | significantly reduced | significantly reduced | – | – | – | – | reducing the expression of inflammatory factors and improving acne | 0.89 | 1.04
